One data set has as its system HRT-18 cells. The experiment in a line: Growth inhibition of HRT-18 colon cancer cells. The data set is classed as cell-based. Conditions: Homo sapiens; HRT-18, Table IV; read-out: IC50 for inhibition of human colon cancer cell proliferation. The protocol: (§1) For dose response studies a sensitive dye binding assay was adapted which allows simultaneous assay of multiple agents and doses in 96-well plates. Cells were plated and allowed to adhere for 24 hours prior to addition of the study drug. Cell densities were then determined 4 days later by fixation of the wells and staining with Sulforhodamine B dye.

In data set [1] the test system is HT-29 cells. Description: Dose response growth inhibition of HT-29 cells, Sulforhodamine B dye binding assay. The data set is classed as cell-based, human. As to conditions: for IC50: Homo sapiens. The protocol: as §1
A general note: In SRB staining, fixed cells bind dye roughly in proportion to their protein.

In data set [2] the test system is LS174T cells. Description: Dose response growth inhibition of LS174T cells, Sulforhodamine B dye binding assay. As to conditions: for IC50: Homo sapiens. The data set is classed as cell-based, human. The protocol: as §1
A further data set has as its system human colon cancer cells. Description: Colon cancer cell proliferation in vitro, comparative statements. The data set is classed as cell-based. On the procedure:
(§2) Cells were grown in Dulbeccos Modified Eagle medium supplemented with 10% calf serum in an atmosphere of 5% CO2 at 37° C. For growth experiments, cells were seeded into 24-well tissue culture dishes (2 cm^2 /well) at a density of 20,000 cells/well and allowed to attach for 12 hours. The growth medium was then changed and replaced with fresh media containing the test drugs.
(§3) The test drugs were dissolved in tissue culture media at the desired concentration and added to individual wells. To determine the number of cells per well, media was removed and the cells washed with phosphate buffered saline solution. The cells were then incubated 15 minutes with trypsin-EDTA solution until detached. The detached cells were then removed from the wells and counted using a Coulter Counter (Model ZBI).
(§4) The cell numbers shown in Table I are the average of triplicate culture wells.
For dose response studies a sensitive dye binding assay was adapted which allows simultaneous assay of multiple agents and doses in 96-well plates. Cells were plated and allowed to adhere for 24 hours prior to addition of the study drug. Cell densities were then determined 4 days later by fixation of the wells and staining with Sulforhodamine B dye. Optical density of the stained cultures was then determined using a 96-well plate reader at 495 nm (Skehan et al. (1990) J. Natl. Cancer Inst. 82:1107-1112).
Two such oxidation products, gentisic acid (Dull et al. (1987) Biochem. Pharmacol. 36:2467-2472) and 5-nitro-salicylate (Laffafian et al. (1991) Biochem. Pharmacol. 42:1869-1874) have been elucidated.

A further data set relates to LoVo cells. Description: Growth inhibition of LoVo colon cancer cells. In kind it is cell-based. As to conditions: Homo sapiens, Table IV, read-out: IC50 for inhibition of human colon cancer cell proliferation. On the procedure: as §1
The conditions of data set [3]: cited from earlier work; for absorption: oral balsalazide.
The subject of another data set is colon cancer cells. Description: 5-ASA growth inhibitory activity following hypochlorite exposure. In kind it is cell-based. Conditions: for inhibition at 10000 µM: 5-ASA 10 mM, read-out: Increase in Growth Inhibition. From the text:
Indeed certain of its therapeutic benefits in the treatment of intestinal inflammation are thought to be derived from its ability to scavenge free radicals including O2^- released from inflammatory cells and thereby reduced oxidative damage.

Another data set concerns nitrosamine formation. As to conditions: from arginine-dependent nitric oxide; cited from earlier work.
In data set [4] the test system is rectal mucosal reactive oxygen metabolite production. Conditions: rectal biopsies, ulcerative colitis patients; cited from earlier work.
Data set [5] has as its system HT-29 cells. Description: Proliferation of HT-29 colon cancer cells, Coulter Counter cell count. The data set is classed as cell-based, human. Conditions: for Cell No. on Day 10: average of triplicate wells; for activity at 10000 µM: read-out: % of Control Cells. The protocol:
as §2, §3, §4

Data set [6] relates to LS174T cells. Description: LS174T growth with freshly dissolved or pre-dissolved 5-ASA. The data set is classed as cell-based. Conditions: Homo sapiens, 96 h. On the procedure:
Cells were grown an additional 4 days prior to quantitation.

Data set [7] relates to LS174T cells. The experiment in a line: Proliferation of LS174T colon cancer cells, Coulter Counter cell count. The data set is classed as cell-based, human. Conditions: for Cell No. on Day 10: average of triplicate wells; for activity at 10000 µM: 240 h. The protocol:
as §2, §3, §4

The conditions of data set [8]: in vivo; cited from earlier work.
The next data set relates to polyps. As to conditions: cited from earlier work; for effect on polyps: sulindac: nine familial polyposis patients, randomized placebo-controlled double-blind crossover.
The next data set deals with colon carcinogenesis. Conditions: cited from earlier work.
Another data set relates to colon cancer incidence. Conditions: cited from earlier work.
Where [9] appears, read: HT-29, Table IV, read-out: IC50 for inhibition of human colon cancer cell proliferation.
The mark [10] stands for this setting: Table IV, read-out: IC50 for inhibition of human colon cancer cell proliferation.
The mark [11] stands for this setting: Homo sapiens, 240 h, HT-29, 10 mM, Day 10.
[12] abbreviates: Homo sapiens, 10 mM, Day 10, read-out: % of Control Cells.

We go through 10 compounds from patent US5905073A, “Use of 2-hydroxy-5-phenylazobenzoic acid derivatives as colon cancer chemopreventative and chemotherapeutic agents” (priority 1996, dated 1999).

Entries after “also recorded” stand apart in the source; their conditions may differ. Like-named read-outs stand apart in the source and are kept apart here.

What is called inhibition is the share of the control response that was lost under treatment.

As for `O=C(O)c1cc(O)ccc1O` [Gentisate, gentisic acid], the IC50 in the data set with HRT-18 cells came to 2.98 mM; in the data set with HT-29 cells [1] (setting [9]), 5.05 mM; in the data set with LS174T cells [2] (setting [10]), 5.85 mM; in the data set with LoVo cells, 4.42 mM. The “inhibition of colon cancer cell growth (in words)” value (“inhibition … (in words)” for short) with human colon cancer cells is on record as “inhibited cell growth”.
With `CC(=O)Nc1ccc(O)c(C(=O)O)c1` [N-acetyl-5-ASA], the “activity of N-acetyl metabolite of 5-ASA” value in data set [3] (in vivo) was “inactive”.
Turning to `[Na+].[O-]Cl` [NaOCl, sodium hypochlorite], the Background inhibitory activity result with colon cancer cells (0.4 mM NaOCl) is “less than 2%”.
Take `Nc1ccc(O)c(C(=O)O)c1` [5-ASA, 5-aminosalicylic acid]: the IC50 in the data set on HRT-18 cells turned out to be 10.5 mM; in the data set on HT-29 cells [1] (setting [9]), 11.9 mM; in the data set on HT-29 cells [1] (HT-29, text (FIG. 5), read-out: IC50) it was 11.8 mM; in the data set with LS174T cells [2] (setting [10]) it was 11.6 mM; with LS174T cells [2] (text (FIG. 5), read-out: IC50) it was 11.5 mM; with LoVo cells, 10.2 mM. The “increase in cell number” value is listed as “approximately 20%” in the data set with HT-29 cells [1] (HT-29, 0.1-4 mM) and “approximately 20%” in the data set on LS174T cells [2] (0.1-1.0 mM). Also, the “inhibition of nitrosamine formation” value in the data set with nitrosamine formation was “inhibits nitrosamine formation”. The “reduction of rectal mucosal reactive oxygen metabolite production” value in data set [4] is recorded as “over 90%”. For the same compound, the “Cell No. on Day 10” value was 512825 with HT-29 cells [5] (HT-29, 10 mM) and 8675 in the data set with LS174T cells [7] (10 mM). Further, the activity at 10000 µM was 39% in the data set on HT-29 cells [5] (setting [11]); 22.9% with LS174T cells [6] (10 mM dissolved in culture media 4 days prior, read-out: growth response relative to control cultures); 82.7% in the data set with LS174T cells [6] (freshly dissolved 10 mM, 4 days, read-out: growth response relative to control cells); 1.22% in the data set on LS174T cells [7] (setting [12]). In addition, the inhibition at 10000 µM came out at 82% with HT-29 cells [5] (Homo sapiens, HT-29, 10 mM, read-out: growth inhibition); 0% in the data set with colon cancer cells (Na hypochlorite 0 mM); 2% in the data set with colon cancer cells (Na hypochlorite 0.01 mM); 4% in the data set on colon cancer cells (Na hypochlorite 0.05 mM); 8% in the data set with colon cancer cells (Na hypochlorite 0.1 mM); 26% in the data set on colon cancer cells (Na hypochlorite 0.2 mM). Further, the inhibition at 10000 µM in the data set with colon cancer cells (Na hypochlorite 0.3 mM) worked out at 42%; in the data set on colon cancer cells (Na hypochlorite 0.4 mM) it was 48%; in the data set with LS174T cells [7] (Homo sapiens, 10 mM, read-out: growth inhibition), 85%. For the same compound, in [3] (single dose of balsalazide, 96-hour period), the “conversion to N-acetyl-5-ASA and excretion in urine” value is reported as “majority”. Besides, the Basal inhibitory activity in the data set with colon cancer cells (unoxidized 5ASA) was 45%.
Regarding `COc1ccc2c(c1)c(CC(=O)O)c(C)n2C(=O)c1ccc(Cl)cc1` [indomethacin], in [8], the absorption / activation entry is listed as “absorbed primarily from the upper GI tract”. Further, the effect on polyps result in the data set on polyps is reported as “no influence on polyp regression”.
Take `Nc1ccc(C(=O)NCCC(=O)O)cc1` [4-ABA, 4-aminobenzoyl-β-alanine]: the “Cell No. on Day 10” value in the data set with HT-29 cells [5] (HT-29, 10 mM) was 1316625; with LS174T cells [7] (10 mM), 768700. For the same compound, the activity at 10000 µM worked out at 100% with HT-29 cells [5] (setting [11]) and 108% in the data set with LS174T cells [7] (setting [12]). The absorption result in [3] is recorded as “poorly absorbed”. The “inhibition … (in words)” value with human colon cancer cells is “inactive”.
In the case of `O=C(O)c1cc([N+](=O)[O-])ccc1O` [5-NSA, 5-nitro-salicylate], the IC50 with HRT-18 cells was determined as 1.46 mM; with HT-29 cells [1] (setting [9]) it was 1.63 mM; with LS174T cells [2] (setting [10]) it was 2.69 mM; in the data set with LoVo cells, 1.38 mM.
With `CC1=C(CC(=O)O)c2cc(F)ccc2/C1=C\c1ccc([S+](C)[O-])cc1` (stereo not shown) [sulindac], the absorption / activation entry in [8] was “converted to its active metabolite, sulindac sulfide, by the colonic bacteria”. In addition, in the data set with polyps (nine familial polyposis patients), the “time to regression of polyps” value is “less than 4 months”. Also, the effect on polyps entry with polyps is reported as “regression of polyps; also recorded: polyp growth resumed following sulindac withdrawal”. Also, the “effect on tumor incidence, dimethylhydrazine-induced” value in the data set on colon carcinogenesis is reported as “reduce tumor incidence only when present during carcinogen administration”.
Consider `CC(=O)Oc1ccccc1C(=O)O` [Ac-salicylic acid, acetyl salicylic acid], for which, in the data set on colon cancer incidence (retrospective study (Kune et al.)), the “risk of colon cancer development” value is “halving”. Also, the “increased risk of colon cancer” value in the data set on colon cancer incidence (retrospective study (Paganini-Hill et al.)) is given as 50%. Further, the “Cell No. on Day 10” value in the data set on HT-29 cells [5] (HT-29, 10 mM) was 14625; in the data set on LS174T cells [7] (10 mM) it was 8300. The activity at 10000 µM with HT-29 cells [5] (Homo sapiens, HT-29, 240 h) is 1.11%; in the data set on LS174T cells [7] (Homo sapiens, read-out: % of Control Cells) it was 2.24%. For the same compound, in the data set with human colon cancer cells, the “inhibition … (in words)” value is recorded as “potently inhibitory”.
`CC(=O)Nc1ccc(C(=O)NCCC(=O)O)cc1` [N-acetyl metabolite of 4-ABA]: in [3], the absorption entry is recorded as “poorly absorbed”.
